US20260234130A1, “EP2 Antagonist Compounds” (Reservoir Neuroscience, Inc., priority 2022, published 2026)
pIC50: −log10 of the molar value.

Target: T1, EP2 receptor (Homo sapiens, UniProt P43116)
T1 construct: expressed in transfected cells; host or cells: CHO-K1 cells (ATCC), transient transfection with FuGENE 6
Test: EP2 potency assay (cAMP TR-FRET, LANCE Ultra cAMP kit) in transfected CHO-K1 cells stimulated with PGE2 at EC80
Format: cell-based
Settings: Table (V), EP2 antagonism, CHO-K1 cells expressing EP2, PGE2 at EC80
Method: Compound potency was measured using a cAMP TR-FRET assay. CHO-K1 cells (ATCC) were seeded at a density of 9.75×105 in 6 cm plates, and then on the following day cell media was changed to Opti-Mem I reduced serum media (Gibco), and transfected with a plasmid for expression of the EP2 receptor (the target receptor of interest), using the FuGENE 6 Transfection reagent (Promega). After 6 hours incubation, the cell media was replaced with F12 medium supplemented with 10% FBS and 100 U/ml Pen-Strep. 24 hours after transfection, cells were harvested and seeded at a density of 3000 cells/well in a 384 well plate to perform the cAMP assay, using the LANCE Ultra cAMP assay kit (PerkinElmer). For each test compound of interest, 10 nl/well of serially diluted test compound was added to each well, resulting in a range of 10 serially diluted compound concentrations from 10000 nM to 0.038 nM, with duplicate wells for each concentration. Plates were then centrifuged at 1000 rpm for 1 min, agitated at 600 rpm at R.T. for 2 min, and incubated at 25° C. for 5 min. The reference agonist, prostaglandin E2 (MCE), was added to each well at the appropriate concentration to reach its EC80 value. Plates were then centrifuged at 1000 rpm for 1 min, agitated at 600 rpm at R.T. for 2 min, and incubated at 25° C. for 30 min. To measure levels of cAMP, 5 μl/well of Eu-cAMP working solution and 5 μl/well of Ulight-anti-cAMP working solution were added to each well, and the plate was centrifuged at 1000 rpm for 1 min, agitated at 600 rpm at R.T. for 2 min, and incubated at 25° C. for 15 min. Levels of TR-FRET fluorescence were measured in each well using an EnVision microplate reader (excitation wavelength=337 nm and emission wavelength=615 and 665 nm). A dose-response curve was prepared by plotting percent inhibition for each compound concentration, and then IC50 was calculated by fitting a curve to the plotted values and extrapolating the IC50 concentration. […] Potency data is grouped into categories of AA (IC50<100 nM); A (IC50=100 to 500 nM); B (IC50=500 nM to […]); C (IC50=1 μM to 5 μM); and D (IC50>5 μM).

T1 sequence (P43116 whole entry): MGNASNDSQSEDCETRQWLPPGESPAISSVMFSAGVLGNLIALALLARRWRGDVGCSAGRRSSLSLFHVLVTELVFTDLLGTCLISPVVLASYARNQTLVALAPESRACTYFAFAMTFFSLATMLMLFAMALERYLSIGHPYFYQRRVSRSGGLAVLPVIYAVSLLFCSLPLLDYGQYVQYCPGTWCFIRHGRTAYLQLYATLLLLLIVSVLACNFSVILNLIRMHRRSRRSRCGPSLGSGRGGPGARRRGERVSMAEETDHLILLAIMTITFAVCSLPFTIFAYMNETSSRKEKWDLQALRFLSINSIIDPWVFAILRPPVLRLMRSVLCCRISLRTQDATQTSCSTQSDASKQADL

SMILES	pIC50
N#CCc1ncc(CN2CCOc3c(Cl)cc(-n4ccc5cc(F)ccc54)cc3C2)cn1 [II-17, 2-(5-((9-chloro-7-(5-fluoro-1H-indol-1-yl)-2,3-dihydrobenzo[f][1,4]oxazepin-4(5H)-yl)methyl)pyrimidin-2-yl)acetonitrile]	6.30 to 7.00
COC(=O)c1ccc(CN2CCOc3c(Cl)cc(-n4ccc5cc(F)ccc54)cc3C2)cn1 [II-19, methyl 5-((9-chloro-7-(5-fluoro-1H-indol-1-yl)-2,3-dihydrobenzo[f][1,4]oxazepin-4(5H)-yl)methyl)picolinate]	6.30 to 7.00
COCCc1ncc(CN2CCOc3c(Cl)cc(-n4ccc5cc(F)ccc54)cc3C2)cn1 [II-20, 9-chloro-7-(5-fluoro-1H-indol-1-yl)-4-((2-(2-methoxyethyl)pyrimidin-5-yl)methyl)-2,3,4,5-tetrahydrobenzo[f][1,4]oxazepine]	6.00 to 6.30
Fc1ccc2c(ccn2-c2cc(Cl)c3c(c2)CN(Cc2cnc(C4CC4)nc2)CCO3)c1 [II-21, 9-chloro-4-((2-cyclopropylpyrimidin-5-yl)methyl)-7-(5-fluoro-1H-indol-1-yl)-2,3,4,5-tetrahydrobenzo[f][1,4]oxazepine]	6.00 to 6.30
Fc1ccc2c(ccn2-c2cc(Cl)c3c(c2)CN(Cc2cnc(-c4nnn[nH]4)nc2)CCO3)c1 [II-22, 4-((2-(1H-tetrazol-5-yl)pyrimidin-5-yl)methyl)-9-chloro-7-(5-fluoro-1H-indol-1-yl)-2,3,4,5-tetrahydrobenzo[f][1,4]oxazepine]	> 7.00
Nc1cc(CN2CCOc3c(Cl)cc(-n4ccc5cc(F)ccc54)cc3C2)cnn1 [II-23, 5-((9-chloro-7-(5-fluoro-1H-indol-1-yl)-2,3-dihydrobenzo[f][1,4]oxazepin-4(5H)-yl)methyl)pyridazin-3-amine]	6.00 to 6.30
Cc1nc(=O)[nH]c(C)c1CN1CCOc2c(Cl)cc(-n3ccc4cc(F)ccc43)cc2C1 [II-24, 5-((9-chloro-7-(5-fluoro-1H-indol-1-yl)-2,3-dihydrobenzo[f][1,4]oxazepin-4(5H)-yl)methyl)-4,6-dimethylpyrimidin-2(1H)-one]	6.00 to 6.30
CS(=O)(=O)NC(=O)c1ncc(CN2CCOc3c(Cl)cc(-n4ccc5cc(F)ccc54)cc3C2)cn1 [II-25, 5-((9-chloro-7-(5-fluoro-1H-indol-1-yl)-2,3-dihydrobenzo[f][1,4]oxazepin-4(5H)-yl)methyl)-N-(methylsulfonyl)pyrimidine-2-carboxamide]	> 7.00
Fc1ccc2c(ccn2-c2cc(Cl)c3c(c2)CN(Cc2cnc(C4=NCCN4)nc2)CCO3)c1 [II-26, 9-chloro-4-((2-(4,5-dihydro-1H-imidazol-2-yl)pyrimidin-5-yl)methyl)-7-(5-fluoro-1H-indol-1-yl)-2,3,4,5-tetrahydrobenzo[f][1,4]oxazepine]	< 5.30
Fc1ccc2c(ccn2-c2cc(Cl)c3c(c2)CN(Cc2cnc4[nH]ccc4c2)CCO3)c1 [II-27, 4-((1H-pyrrolo[2,3-b]pyridin-5-yl)methyl)-9-chloro-7-(5-fluoro-1H-indol-1-yl)-2,3,4,5-tetrahydrobenzo[f][1,4]oxazepine]	6.30 to 7.00
Cc1nc(Cl)nc(C)c1CN1CCOc2c(Cl)cc(-n3ccc4cc(F)ccc43)cc2C1 [II-28, 9-chloro-4-((2-chloro-4,6-dimethylpyrimidin-5-yl)methyl)-7-(5-fluoro-1H-indol-1-yl)-2,3,4,5-tetrahydrobenzo[f][1,4]oxazepine]	5.30 to 6.00
COc1ncncc1CN1CCOc2c(Cl)cc(-n3ccc4cc(F)ccc43)cc2C1 [II-29, 9-chloro-7-(5-fluoro-1H-indol-1-yl)-4-((4-methoxypyrimidin-5-yl)methyl)-2,3,4,5-tetrahydrobenzo[f][1,4]oxazepine]	6.00 to 6.30
Fc1ccc2c(ccn2-c2cc(Cl)c3c(c2)CN(Cc2cnc4[nH]ncc4c2)CCO3)c1 [II-31, 4-((1H-pyrazolo[3,4-b]pyridin-5-yl)methyl)-9-chloro-7-(5-fluoro-1H-indol-1-yl)-2,3,4,5-tetrahydrobenzo[f][1,4]oxazepine]	5.30 to 6.00
Cn1ncc(CN2CCOc3c(Cl)cc(-n4ccc5cc(F)ccc54)cc3C2)cc1=O [II-32, 5-((9-chloro-7-(5-fluoro-1H-indol-1-yl)-2,3-dihydrobenzo[f][1,4]oxazepin-4(5H)-yl)methyl)-2-methylpyridazin-3(2H)-one]	6.30 to 7.00
COc1ncc(CN2CCOc3c(Cl)cc(-n4ncc5cc(F)ccc54)cc3C2)cn1 [II-33, 9-chloro-7-(5-fluoro-1H-indazol-1-yl)-4-((2-methoxypyrimidin-5-yl)methyl)-2,3,4,5-tetrahydrobenzo[f][1,4]oxazepine]	> 7.00
Nc1ncc(CN2CCOc3c(Cl)cc(-n4ccc5c(F)c(F)ccc54)cc3C2)cn1 [II-36, 5-((9-chloro-7-(4,5-difluoro-1H-indol-1-yl)-2,3-dihydrobenzo[f][1,4]oxazepin-4(5H)-yl)methyl)pyrimidin-2-amine]	> 7.00
O=c1ncc(CN2CCOc3c(Cl)cc(-c4coc5cc(F)ccc45)cc3C2)c[nH]1 [II-38, 5-((9-chloro-7-(6-fluorobenzofuran-3-yl)-2,3-dihydrobenzo[f][1,4]oxazepin-4(5H)-yl)methyl)pyrimidin-2(1H)-one]	> 7.00
COc1ncc(CN2CCOc3c(Cl)cc(-c4coc5c(F)c(F)ccc45)cc3C2)cn1 [II-39, 9-chloro-7-(6,7-difluorobenzofuran-3-yl)-4-((2-methoxypyrimidin-5-yl)methyl)-2,3,4,5-tetrahydrobenzo[f][1,4]oxazepine]	6.30 to 7.00
O=C(O)c1ncc(CN2CCOc3c(Cl)cc(-n4ccc5c(F)c(F)ccc54)cc3C2)cn1 [II-41, 5-((9-chloro-7-(4,5-difluoro-1H-indol-1-yl)-2,3-dihydrobenzo[f][1,4]oxazepin-4(5H)-yl)methyl)pyrimidine-2-carboxylic acid]	> 7.00
Fc1ccc2c(ccn2-c2cc(Cl)c3c(c2)CN(Cc2cnc(-c4nnn[nH]4)nc2)CCO3)c1F [II-42, 4-((2-(1H-tetrazol-5-yl)pyrimidin-5-yl)methyl)-9-chloro-7-(4,5-difluoro-1H-indol-1-yl)-2,3,4,5-tetrahydrobenzo[f][1,4]oxazepine]	> 7.00
Fc1ccc2c(-c3cc(Cl)c4c(c3)CN(Cc3cnc(-c5nnn[nH]5)nc3)CCO4)coc2c1 [II-43, 4-((2-(1H-tetrazol-5-yl)pyrimidin-5-yl)methyl)-9-chloro-7-(6-fluorobenzofuran-3-yl)-2,3,4,5-tetrahydrobenzo[f][1,4]oxazepine]	> 7.00
O=c1ncc(CN2CCOc3c(Cl)cc(-n4ncc5cc(F)ccc54)cc3C2)c[nH]1 [II-44, 5-((9-chloro-7-(5-fluoro-1H-indazol-1-yl)-2,3-dihydrobenzofuran[f][1,4]oxazepin-4(5H)-yl)methyl)pyrimidin-2(1H)-one]	> 7.00
COc1ncc(CN2CCOc3c(Cl)cc(-c4csc5cc(F)ccc45)cc3C2)cn1 [II-46, 9-chloro-7-(6-fluorobenzo[b]thiophen-3-yl)-4-((2-methoxypyrimidin-5-yl)methyl)-2,3,4,5-tetrahydrobenzo[f][1,4]oxazepine]	6.30 to 7.00
O=c1ncc(CN2CCOc3c(Cl)cc(-c4csc5cc(F)ccc45)cc3C2)c[nH]1 [II-47, 5-((9-chloro-7-(6-fluorobenzo[b]thiophen-3-yl)-2,3-dihydrobenzo[f][1,4]oxazepin-4(5H)-yl)methyl)pyrimidin-2(1H)-one]	> 7.00
COc1ncc(CN2CCOc3c(Cl)cc(-c4coc5cc(F)ccc45)cc3C2)cn1 [II-48, 9-chloro-7-(6-fluorobenzofuran-3-yl)-4-((2-methoxypyrimidin-5-yl)methyl)-2,3,4,5-tetrahydrobenzo[f][1,4]oxazepine]	> 7.00
COc1ncc(CN2CCOc3c(Cl)cc(-n4cnc5cc(F)ccc54)cc3C2)cn1 [II-49, 9-chloro-7-(5-fluoro-1H-benzo[d]imidazol-1-yl)-4-((2-methoxypyrimidin-5-yl)methyl)-2,3,4,5-tetrahydrobenzo[f][1,4]oxazepine]	6.00 to 6.30
CS(=O)(=O)Nc1cc(CN2CCOc3c(Cl)cc(-n4ccc5cc(F)ccc54)cc3C2)cnn1 [II-52, N-(5-((9-chloro-7-(5-fluoro-1H-indol-1-yl)-2,3-dihydrobenzo[f][1,4]oxazepin-4(5H)-yl)methyl)pyridazin-3-yl)methanesulfonamide]	> 7.00
CCOC(=O)c1ncc(CN2CCOc3c(Cl)cc(-n4ccc5c(F)c(F)ccc54)cc3C2)cn1 [II-74, ethyl 5-((9-chloro-7-(4,5-difluoro-1H-indol-1-yl)-2,3-dihydrobenzo[f][1,4]oxazepin-4(5H)-yl)methyl)pyrimidine-2-carboxylate]	> 7.00
